Experimental data from patent US7754249B2, “Haircare compositions and methods” (The Boots Company PLC, priority 2004, dated 2010).

Tested on: interleukin-2 (IL-2) production
Experiment: IL-2 inhibition assay in pha-stimulated human lymphocytes
Format: cell-based
Settings: preliminary trial; cultured human lymphocytes stimulated with pha, with or without CsA
Method: The potential for the extracts to reduce/prevent hair loss or promote hair growth were assessed by an IL-2 inhibition assay. IL-2 has been associated with inhibition of hair growth and promotion of hair loss.
Human lymphocytes were extracted from blood and cultured using standard techniques. A preliminary trial was carried out to ensure that test cells were able to produce IL-2 when stimulated with phytohaemogluttinin (pha), a known IL-2 promoter, and also for this stimulation to be inhibited using Cyclosporin A (CsA) which is a known inhibitor of IL-2 production.
Following this confirmation of the capability of the cells to produce IL-2, studies using the extracts were carried out using the same methodology, but with the extracts replacing CsA. Results are shown in Table 2 and expressed as % IL-2 inhibition compared to control.
Control=50% denatured ethanol, 50% propylene glycol.
All materials were used at 1 in 1000 dilution.

## phytohaemogluttinin [pha]
  IL-2: >1000 pg/mL
